{"source": "patent US12187717B2", "about": "“Compound and use thereof in treating autoimmune diseases” (PARENCHYMA BIOTECH INC., priority 2022, dated 2025)", "key": {"IL-6": {"tested_on": "IL-6", "experiment": "IL-6 production of A549 epithelial cells by IL-1β stimulation", "type": "cell-based, Human", "details": "A549, 5 μM, 48 hours then IL-1β 24 hours, vs control", "protocol": "In order to assess the inhibitory effects of production of IL-6 by the compounds of the present invention prepared as above, an IL-6 production test of epithelial cells by stimulation of IL-1β was performed.\nAfter recovering A549 cells under culture in DMEM-fetal bovine serum (FBS) 10% medium and confirming that the survival rate is 97% or more through trypan blue staining, the recovered product was centrifuged at a speed of 1200 rpm for 5 minutes at room temperature, and the cells were prepared by resuspending them in DMEM-10% fetal bovine serum medium at 1×10^6 cells/3 ml. Thereafter, the cells were dispensed by 3 ml onto a 60 mm plate, and each dish was treated with 50 μl of Compounds 6, 9, 21, 32 and 39 at a concentration of 5 μM diluted in DMEM medium, and then cultured in a cell incubator (5% CO2 incubator) for 48 hours. Then, the cells were treated with 50 μl of human recombinant IL-1β at a concentration of 12.5 ng/ml diluted in DMEM medium, followed by culturing the same in a cell incubator (5% CO2 incubator) for 24 hours. As a control, 50 μl of 0.05% dimethylsulfoxide (DMSO)/DMEM medium was used for treatment.\nThe cultured cells were recovered to prepare an mRNA sample. […] From the separated RNA, cDNA was synthesized by reverse transcription, and the expression of CYP1A1 was confirmed through a real-time polymerase chain reaction (PCR) using iQ SYBR-Green Supermix (Bio-rad) in a CFX96 (Bio-rad) detection system. […] Herein, one (1) fold was set using the control.\nThe real-time polymerase chain reaction was performed under the conditions of 45 cycles at an annealing temperature of 58° C., wherein the following primer sequences were used."}, "[1]": {"tested_on": "DSS-induced inflammatory bowel disease", "experiment": "DSS-induced inflammatory bowel disease model: severity index and colon weight:length ratio", "type": "in vivo, C57BL/6 mice", "details": "10 mg/kg oral daily, compared to solvent control", "protocol": "On day 0 of the experiment, a 2.0% DSS solution prepared by dissolving DSS (Dextran sulfate sodium, MP biomedicals, Cat No. 160110) in […] was given for drinking to C57BL/6 mice (11 weeks old, female, 20±2 g) for 7 days. The 2.0% DSS solution was changed at an interval of 2 days. Sterile distilled water was provided for drinking from the 8th day of the experiment. Body weight and severity index were measured at an interval of 2 days from the 0th day of the experiment in order to confirm the onset of inflammatory bowel disease.\n10 mg/kg of Compound 6 per mouse was completely dissolved in an ethanol-Cremophor EL mixture corresponding to 7.5% (v/v) of the administered dose, and then, was diluted in phosphate buffered saline to prepare the final ethanol:Cremophor EL:phosphate buffered saline (0.375:0.375:9.25, v/v/v), followed by oral administration of 200 μl daily for a total of 14 times from the 1st to 14th days of the experiment. An inflammatory bowel disease severity index was visually observed and recorded at an interval of 2 days according to a severity index system classified into 0 to 10 levels.\nInflammatory bowel disease symptoms were evaluated by summing the scores of three items according to the following items (Table 2)."}, "[2]": {"tested_on": "graft-versus-host disease", "experiment": "Graft-versus-host disease model (B6->BDF1)", "type": "in vivo, BDF1 mice", "details": "10 mg/kg oral daily, 3rd to 14th days", "protocol": "The spleen of C57BL/6 mice (8 to 12 weeks old, female, 18±3 g) was excised, pulverized by adding RPMI medium, and then passed through a 40 μm cell strainer (BD Falcon), thereby obtaining a single cell suspension. The single cell suspension was centrifuged (1200 rpm, 5 minutes), and after discarding the supematant, 1 ml of ACK (ammonium chloride/potassium bicarbonate) lysis buffer (0.15 M NH4Cl, 1 mM KHCO3, 0.1 mM Na2 EDTA) was added, followed by stirring for 1 minute and then washing the same with RPMI medium. After centrifugation, the cell suspension was reacted on mouse CD90.2 microbeads (Miltenyi Biotec, Cat No. 130-121-278) at 4° C. for 20 minutes. After complementation of the reaction, the cell suspension was centrifuged, washed with 10 ml of autoMACS® Running Buffer (Miltenyi Biotec, Cat No. 130-091-221), and then resuspended with 3 ml of autoMACS® Running Buffer. Then, CD90.2^+ T cells were obtained from the cell suspension using Auto MACS pro (Miltenyi Biotec) (positive selection). […]\nThe graft-versus-host disease severity index was evaluated at an interval of 3 to 4 days by visual observation in a severity index system that was classified into a total of 10 points with 0 to 2 points for each item of weight reduction, hair condition, posture, activity and skin change."}}}
{"smiles": "O=C(Cc1c[nH]c2ccc(Cl)cc12)Nc1nc2ccc(N3CCOCC3)cc2s1", "note": "[Compound 6, 2-(5-chloro-1H-indol-3-yl)-N-(6-morpholinobenzo[d]thiazol-2-yl)acetamide]", "values": [{"measurement": "IL-6 production of A549 by IL-1β stimulation", "setting": "IL-6", "value": "significantly reduced"}, {"measurement": "inflammatory bowel disease severity index", "setting": "[1]; 10th day", "value": "statistically significant therapeutic effects"}, {"measurement": "colon weight:length ratio", "setting": "[1]; 15th day", "value": "significantly suppressed"}, {"measurement": "colon tissue inflammatory pathology index", "setting": "[2]", "value": "significantly decreased"}, {"measurement": "severity index of graft-versus-host disease", "setting": "[2]; total of 10 points, solvent control 8±1", "value": "2.2±1.2"}]}
